Data from patent US20260008801A1, “BIO-BASED SURFACTANTS DERIVED FROM CARBOHYDRATES” (COÖPERATIE KONINKLIJKE COSUN U.A., priority 2022, published 2026).
Where two headings read alike, the source gives them in different places.

How the values were obtained:
Format in all cases: physicochemical
[1] = Foaming abilities, 1% compound solutions shaken by hand; design: key to FOAM: −: no foam formation; +: low foam formation; ++: moderate foam formation; +++: strong foam formation
Procedure: Foaming abilities were evaluated at room temperature by shaking 1% compound solutions (2 ml) of pH 3, 7, and 12 by hand for 10 s. The pH of each solution was assessed with a pH meter at room temperature. […] The foam heights at the initial time were compared to one another after which the foaming abilities were classified according to no foam formation (−), low foam formation (+), moderate foam formation (++), and strong foam formation (+++).

[2] = Solubility in water (excess of compound in 4 ml demi water); conditions: for Solubility: Table E5.2, water
Procedure: Solubility is preferably solubility in aqueous solution, more preferably solubility in water, most preferably solubility in demineralised water. A skilled person knows how to assess such solubility.
Solubility in water was determined by preparing mixtures of an excess of compound dispersed in 4 ml demi water using a vortex at maximum speed for 1 min. […] 1 ml of the mixture was concentrated in vacuo to yield a solid. The mass of the solid was determined in mg to calculate the solubility in percentage by dividing by ten.

[3] = Surface tension measurements, Wilhelmy plate (surface tension, CMC)
Procedure: Surface tension measurements were performed with a Biolin Scientific Sigma701 automatic tension meter equipped with a Wilhelmy plate made of platinum (±0.5 mN/m). […] The number of experimental points is related to the compound's/surfactant's solubility and available quantity. All compound/surfactant solutions were allowed to stand 12 h before being measured. The platinum plate was thoroughly cleaned with demi water and flame-dried before each measurement. The CMC of each compound/surfactant was determined at the minimum of a breakpoint of a conventional plot of surface tension versus compound/surfactant concentration. DCMC was obtained by acquiring the surface tension at the CMC. The pC20 value was determined by taking the minus log of the concentration compound/surfactant at a surface tension of 52 mN/m.

[4] = Foaming power and stability, Ultra-Turrax, 0.4% aq. surfactant; conditions: Table E5.2; for Foamability (mL) after (min) 1: foam volume after 1 min; for Foamability (mL) after (min) 5: foam volume after 5 min; for Foamability (mL) after (min) 10: foam volume after 10 min
Procedure: Foaming power was also tested at room temperature with 5 mL of 0.4% aq. surfactant (20 mg) solution in a 50 mL measuring cylinder. After performing the Ultra-Turrax (a registered trademark for a high-performance dispersing instrument) for 20 seconds (8000 rpm), the initial height of the foam was measured for foam height. (volume in mL). Every time step of, 1, 3, 5, 10, 30, 60 minutes was noted. In addition, after 24 hours the stability was checked. Particularly, foaming power and stability of the surfactants were performed using an IKA Ultra-Turrax T25 with an 18 G dispersing element. At room temperature, an aqueous solution of 5 mL 0.4% surfactant in a 50 mL measuring cylinder (2.20 cm diameter) was mixed with the Ultra-Turrax for 20 seconds at 8000 rpm. The foam height (volume in mL) was denoted for 0, 1, 3, 5, 10, 30, 60 min and 24 hours. In addition, after 24 hours the stability was checked.

[5] = Table E2, galactaric acid amides
[6] = Table E2, room temperature, pH 7
[7] = Table E4, room temperature, pH 7
[8] = Table E5, room temperature, pH 7

Compound: 1-(N-(decanoic acid))-L-arabinonamide [Compound 06]
- foaming behaviour / foam creation, in words [1]: does not create foam

Compound: CC(C)CNC(=O)[C@H](O)[C@@H](O)[C@@H](O)CO [Compound 05, 1-(N-isobutyl)-L-arabinonamide]
- FOAM ([1]; Table E1): −
- solubility in water, in words [2]: soluble
- SOLUBILITY (H2O) ([2]; Table E1, arabinonamides): Yes
- stable surface tension value at maximal concentration (micelle formation) ([3]; maximal concentration in water, means no micelles were formed): do not reach a stable surface tension value

Compound: CCCCNC(=O)[C@H](O)[C@@H](O)[C@@H](O)[C@H](O)C(=O)O [Compound 09]
- FOAM ([1]; Table E2): −
- solubility in H2O [2]: 6%
- SOLUBILITY (H2O) [2, 5]: >6%
- SURFACE TENSION [3, 6]: 50.78 mN/m

Compound: CCCCCCNC(=O)[C@H](O)[C@@H](O)[C@@H](O)[C@H](O)C(=O)O [Compound 10]
- FOAM ([1]; Table E2): −
- solubility in H2O [2]: 2.5%
- SOLUBILITY (H2O) [2, 5]: ~2.5%
- SURFACE TENSION [3, 6]: 49.43 mN/m

Compound: CCCCCCCCNC(=O)[C@H](O)[C@@H](O)[C@@H](O)[C@H](O)C(=O)O [Compound 11]
- foam stability compared with SLES [1]: quite similar
- foaming behaviour / foam creation, in words [1]: Foam appears
- FOAM ([1]; Table E2): ++
- solubility in H2O [2]: 2%
- SOLUBILITY (H2O) [2, 5]: ~2.0%
- SURFACE TENSION [3]: 26 mN/m
- concentration at which the surface tension is reached [3]: 0.29%
- CMC (%) ([3]; Table E2): 0.17%
- SURFACE TENSION [3, 6]: 26.0 mN/m

Compound: CCCCCCCCCCNC(=O)[C@H](O)[C@@H](O)[C@@H](O)[C@H](O)C(=O)O [Compound 12]
- FOAM ([1]; Table E2): ++
- solubility in water, in words [2]: relatively low
- SOLUBILITY (H2O) [2, 5]: <1%

Compound: CCCCCCCCCCCCNC(=O)[C@H](O)[C@@H](O)[C@@H](O)[C@H](O)C(=O)O [Compound 13]
- FOAM ([1]; Table E2): −
- solubility in water, in words [2]: relatively low

Compound: CCCCCCN(C)C[C@H](O)[C@@H](O)[C@@H](O)CO [Compound 23, N-methyl-N-hexyl-L-arabinamine]
- FOAM ([1]; Table E4, pH > 7): +
- solubility in H2O [2]: 30%
- SOLUBILITY (H2O) ([2]; Table E4): 30%
- Solubility [2]: 30%
- CMC (%) ([3]; Table E4): 2%
- SURFACE TENSION [3, 7]: 31.4 mN/m
- CMC (%) ([3]; Table E5.2): 2%
- Surface tension (nM/m) ([3]; Table E5.2): 31.4 mN/m
- Foamability (mL) after (min) 1 [4]: 2 mL
- Foamability (mL) after (min) 5 [4]: 0.2 mL
- Foamability (mL) after (min) 10 [4]: 0 mL

Compound: CCCCCCCCN(C)C[C@H](O)[C@@H](O)[C@@H](O)CO [Compound 24, N-methyl-N-octyl-L-arabinamine]
- FOAM ([1]; Table E4, pH > 7): +
- SOLUBILITY (H2O) ([2]; Table E4): 0.9%
- Solubility [2]: 0.9%
- solubility, earlier measurements ([2]; earlier measurements, initially found): 0.25%
- CMC (%) ([3]; Table E4): 0.25%
- SURFACE TENSION [3, 7]: 28.7 mN/m
- CMC (%) ([3]; Table E5.2): 0.25%
- Surface tension (nM/m) ([3]; Table E5.2): 28.7 mN/m
- Foamability (mL) after (min) 1 [4]: 5 mL
- Foamability (mL) after (min) 5 [4]: 4.5 mL
- Foamability (mL) after (min) 10 [4]: 4 mL

Compound: CCCCCCCCCCN(C)C[C@@H](O)[C@@H](O)[C@H](O)CO [Compound 24b, N-methyl-N-decyl-L-arabinamine]
- Solubility [2]: 0.1%
- CMC (%) ([3]; Table E5.2): 0.2%
- Surface tension (nM/m) ([3]; Table E5.2): 33.7 mN/m
- Foamability (mL) after (min) 1 [4]: 3 mL
- Foamability (mL) after (min) 5 [4]: 3 mL
- Foamability (mL) after (min) 10 [4]: 2 mL

Compound: CCCCCCCCCCCCN(C)C[C@H](O)[C@@H](O)[C@@H](O)CO [Compound 25, N-methyl-N-dodecyl-L-arabinamine]
- FOAM ([1]; Table E4, pH > 7): ++
- SOLUBILITY (H2O) ([2]; Table E4): 0.06%
- Solubility [2]: 0.06%
- CMC (%) ([3]; Table E4): 0.1%
- SURFACE TENSION [3, 7]: 26.2 mN/m
- CMC (%) ([3]; Table E5.2): 0.1%
- Surface tension (nM/m) ([3]; Table E5.2): 26.2 mN/m
- Foamability (mL) after (min) 1 [4]: 5 mL
- Foamability (mL) after (min) 5 [4]: 5 mL
- Foamability (mL) after (min) 10 [4]: 4 mL

Compound: CCCCCCCCCCN(C)C[C@H](O)[C@@H](O)[C@@H](O)[C@H](O)C(=O)O [Compound 25b, N-methyldecyl-D-galactaric acid amine]
- Solubility [2]: 2%
- CMC (%) ([3]; Table E5.2): 0.06%
- Surface tension (nM/m) ([3]; Table E5.2): 32.85 mN/m
- Foamability (mL) after (min) 1 [4]: 6 mL
- Foamability (mL) after (min) 5 [4]: 6 mL
- Foamability (mL) after (min) 10 [4]: 5 mL

Compound: CCCCNC[C@H](O)[C@@H](O)[C@@H](O)CO [Compound 26, N-butyl-L-arabinamine, reference compound]
- FOAM ([1]; Table E4, pH not given): −
- SOLUBILITY (H2O) ([2]; Table E4): 6.67%
- CMC (%) ([3]; Table E4): 2%
- SURFACE TENSION [3, 7]: 45.8 mN/m

Compound: CCCCCCNC[C@H](O)[C@@H](O)[C@@H](O)CO [Compound 27, N-hexyl-L-arabinamine, reference compound]
- FOAM ([1]; Table E4, pH not given): −
- SOLUBILITY (H2O) ([2]; Table E4): 0.75%
- Solubility [2]: 0.75%
- CMC (%) ([3]; Table E4): 0.5%
- SURFACE TENSION [3, 7]: 30.3 mN/m

Compound: CCCCCCCCNC[C@H](O)[C@@H](O)[C@@H](O)CO [Compound 28, N-octyl-L-arabinamine, reference compound]
- FOAM ([1]; Table E4, pH not given): −

Compound: O=C(O)CCCCCCCCCCNC[C@H](O)[C@@H](O)[C@@H](O)CO [Compound 29]
- FOAM ([1]; Table E4, pH not given): −
- SOLUBILITY (H2O) ([2]; Table E4): 1%
- CMC (%) ([3]; Table E4): 1%
- SURFACE TENSION [3, 7]: 56.1 mN/m

Compound: CCCCCCCCNC[C@H](O)[C@@H](O)[C@@H](O)[C@H](O)C(=O)O [Compound 33, N-octyl-D-galacturonic acid amine, reference compound]
- FOAM ([1]; Table E5, pH not given): −
- solubility in H2O [2]: 1%
- SOLUBILITY (H2O) ([2]; Table E5): 1%
- Solubility [2]: 1%
- CMC (%) ([3]; Table E5): 1%
- SURFACE TENSION [3, 8]: 45.1 mN/m

Compound: CCCCCCCCCCNC[C@H](O)[C@@H](O)[C@@H](O)[C@H](O)C(=O)O [Compound 33b, N-decyl-D-galacturonic acid amine]
- Solubility [2]: 0.55%

Compound: CCCCCCCCCCCCNC[C@H](O)[C@@H](O)[C@@H](O)[C@H](O)C(=O)O [Compound 34, N-dodecyl-D-galacturonic acid amine, reference compound]
- FOAM ([1]; Table E5, pH not given): −
- SOLUBILITY (H2O) ([2]; Table E5): 0.3%
- Solubility [2]: 0.3%
- CMC (%) ([3]; Table E5): 0.1%
- SURFACE TENSION [3, 8]: 30.7 mN/m

Compound: CCCCCCCC(C)NC[C@H](O)[C@@H](O)[C@@H](O)[C@H](O)C(=O)O (stereo partly drawn) [Compound 35, N-(1-methyloctyl)-D-galacturonic acid amine]
- FOAM ([1]; Table E5, pH not given): −
- SOLUBILITY (H2O) ([2]; Table E5): 0.9%

Compound: CCCCCCCCCCCCN(C)C[C@H](O)[C@@H](O)[C@H](O)[C@H](O)CO [Compound 50, 1-(N-methyl-N-dodecyl)-D-glucosamine]
- solubility in H2O [2]: 0%

Compound: CCCCCCCCCCCCOS(=O)(=O)[O-].[Na+] [SLS, reference compound]
- concentration at which the surface tension is reached [3]: 0.02%
